Columns and labels:
HBV [1] = assay: shRNA function against HBV infection of fresh human hepatocytes (PHH cells), short-term culture (Example 3); conditions: for amount of cccDNA: shRNA alone, lentivirus day 0, HBV day 1, collected day 7; for amount of cccDNA, combined use of ETV: shRNA plus entecavir (ETV) 10 nM from day 2, collected day 7 (short-term culture)
Protocol: Using fresh human hepatocytes (PHH cells) derived from PXB mouse (PhoenixBio Co., Ltd., Hiroshima, Japan), effects of shRNAs against each gene on infection of human hepatocytes with HBV were determined. Experiments were carried out by culturing PHH cells as follows. First, on day 0 of culture, the cells were infected with the lentivirus expressing the shRNA against each of the genes by a conventional method. A serum collected from an HBV-infected chimeric mouse infected with HBV (Genotype C. 5 HBV DNA copies/cell) was added to the cells as an HBV inoculum on day 1 of culture. On day 2 of culture, the cells were washed three times and entecavir (ETV) (10 nM) was added thereto. On day 7 of culture, the cells were collected and the amount of HBV DNA, the amount of HBV cccDNA, and the mRNA level of each gene were determined. The amounts of HBV DNA, HBV cccDNA, and pg RNA were quantified in the same manner as in Example 1.

HBV [2] = assay: Effect of LIPG inhibitor on HBV in Huh7 cell line carrying HBV expression construct (Example 10); format: cell-based, hepatitis B virus; conditions: Huh7 cells, inhibitor 1 μM to 100 μM added five days after construct introduction, one week; depending on the concentration
Protocol: An HBV expression construct (HBV-C: provided by Dr. Yasuhito Tanaka at Nagoya City University) was introduced into Huh7 cell line. Five days after the introduction, an LIPG inhibitor (GSK264220A) was added at 1 μM to 100 μM and the cells were cultured.

DOCK11 gene = DOCK11 gene expression (mRNA) in Huh 7.5 cells (Example 8); conditions: Huh7.5 cells, vs cont shRNA
Protocol: The mRNA of DOCK11 gene was quantified by real time PCR according to a conventional method.
The antiviral activity of the shRNA against Dock11 gene was evaluated using a replicon system for JFH1 strain. HCV replication analysis was performed by transfecting Huh 7.5 cells with synthetic JFH1-RNA. Cells in which DOCK11 was constitutively knocked down were prepared by introducing DOCK11 shRNA #2 into Huh 7.5 cells. Cells into which cont shRNA was introduced were used as a control. Huh 7.5 cells into which each shRNA had been introduced were transfected with 1 μg synthetic RNA (JFH1-RNA) using TransIT®-mRNA Transfection Kit (Mirus). Total RNAs were isolated 24, 48 and 72 hours after the transfection using High Pure RNA Isolation Kit (Roche), and cDNAs were synthesized using high-capacity cDNA reverse transcription kit (Applied Biosystems, Carlsbad, Calif.). […] The expression of DOCK11 gene was evaluated by determining the level of mRNA in the same manner as in Example 2.

HBV [3] = assay: shRNA introduced after established HBV infection of PHHs (Example 6); format: cell-based, hepatitis B virus; conditions: shRNA introduced one week after HBV infection, cultured 3 weeks
Protocol: The effects of an shRNA on the proliferation of HBV when PHHs were infected with HBV and then treated with an shRNA were investigated. One week after PHHs were infected with HBV, the shRNA (SEQ ID NO: 2) against Dock11 gene was introduced and the cells were cultured for 3 weeks with culture medium changes.

HCV = HCV replication analysis, JFH1-RNA transfected Huh 7.5 cells (Example 8); conditions: Huh7.5 cells, 24, 48 and 72 hours after introduction of HCV RNA (JFH1-RNA)
Protocol: The antiviral activity of the shRNA against Dock11 gene was evaluated using a replicon system for JFH1 strain. HCV replication analysis was performed by transfecting Huh 7.5 cells with synthetic JFH1-RNA. Cells in which DOCK11 was constitutively knocked down were prepared by introducing DOCK11 shRNA #2 into Huh 7.5 cells. Cells into which cont shRNA was introduced were used as a control. Huh 7.5 cells into which each shRNA had been introduced were transfected with 1 μg synthetic RNA (JFH1-RNA) using TransIT®-mRNA Transfection Kit (Mirus). Total RNAs were isolated 24, 48 and 72 hours after the transfection using High Pure RNA Isolation Kit (Roche), and cDNAs were synthesized using high-capacity cDNA reverse transcription kit (Applied Biosystems, Carlsbad, Calif.).

Molecule | amount of cccDNA (HBV [1]) | amount of cccDNA, combined use of ETV (HBV [1]) | also measured
HECW2 #3: lentivirus-expressed shRNA against HECW2 gene, SEQ ID NO: 17, used in Examples 3 and 4 (guide CCGGGCACAATACTTGGAGTCAATTCTCGAGAATTGACTCCAAGTATTGTGCTTTTT) | decreased | synergistic effect to decrease cccDNA | –
Cc1oc(S(=O)(=O)N2CCCCC2)cc1NC(=O)Nc1ccccc1 [GSK264220A] | – | – | amount of HBV DNA (HBV [2]): decreased; amount of HBV cccDNA (HBV [2]): decreased
DOCK11 #2: lentivirus-expressed shRNA against DOCK11 gene, SEQ ID NO: 2, used in Examples 3, 4, 6, 8, 12 (guide CCGGGTACTAGACACCATATCATTTCTCGAGAAATGATATGGTGTCTAGTACTTTTTG) | dramatically decreased | below the detection sensitivity | expression level of DOCK11 gene (DOCK11 gene): decreased; amount of cccDNA, combined use of ETV (HBV [1]; listed as shRNA for Dock11 gene): below the detection limit; cccDNA of HBV (HBV [3]): disappear; pgRNA of HBV (HBV [3]): disappear; HCV RNA replication (HCV): effectively suppressed
DENND2A #2: lentivirus-expressed shRNA against DENND2A gene, SEQ ID NO: 7, used in Examples 3 and 4 (guide CCGGCCAATGAAGGAGAACCCTTATCTCGAGATAAGGGTTCTCCTTCATTGGTTTTTTG) | dramatically decreased | below the detection sensitivity | amount of cccDNA, combined use of ETV (HBV [1]; listed as shRNA for DENND2A gene): below the detection limit
LIPG #5: lentivirus-expressed shRNA against LIPG gene, SEQ ID NO: 14, used in Examples 3 and 4 (guide CCGGTTACACGGATGCGGTCAATAACTCGAGTTATTGACCGCATCCGTGTAATTTTTG) | decreased | synergistic effect to decrease cccDNA | –

Source: patent US10709727B2, “Antiviral drugs” (priority 2015, dated 2020)
